Measured values published in US8486683B2, “Beta-glucosidase enzymes” (Iogen Energy Corporation, priority 2009, dated 2013).
Where “and” joins values, the source holds several entries; their conditions need not be identical. Identical values can stand only once.

Columns and labels:
[1] = target: T1, Trichoderma reesei beta-glucosidase TrCel3A (Cel3A, BGL1), wild type (parental), SEQ ID NO: 116 / SEQ ID NO: 1 (Trichoderma reesei, UniProt Q12715); experiment: Initial rate assay of cellobiose hydrolysis, parental TrCel3A (Example 9); type: biochemical
T1 sequence (Q12715 32-744): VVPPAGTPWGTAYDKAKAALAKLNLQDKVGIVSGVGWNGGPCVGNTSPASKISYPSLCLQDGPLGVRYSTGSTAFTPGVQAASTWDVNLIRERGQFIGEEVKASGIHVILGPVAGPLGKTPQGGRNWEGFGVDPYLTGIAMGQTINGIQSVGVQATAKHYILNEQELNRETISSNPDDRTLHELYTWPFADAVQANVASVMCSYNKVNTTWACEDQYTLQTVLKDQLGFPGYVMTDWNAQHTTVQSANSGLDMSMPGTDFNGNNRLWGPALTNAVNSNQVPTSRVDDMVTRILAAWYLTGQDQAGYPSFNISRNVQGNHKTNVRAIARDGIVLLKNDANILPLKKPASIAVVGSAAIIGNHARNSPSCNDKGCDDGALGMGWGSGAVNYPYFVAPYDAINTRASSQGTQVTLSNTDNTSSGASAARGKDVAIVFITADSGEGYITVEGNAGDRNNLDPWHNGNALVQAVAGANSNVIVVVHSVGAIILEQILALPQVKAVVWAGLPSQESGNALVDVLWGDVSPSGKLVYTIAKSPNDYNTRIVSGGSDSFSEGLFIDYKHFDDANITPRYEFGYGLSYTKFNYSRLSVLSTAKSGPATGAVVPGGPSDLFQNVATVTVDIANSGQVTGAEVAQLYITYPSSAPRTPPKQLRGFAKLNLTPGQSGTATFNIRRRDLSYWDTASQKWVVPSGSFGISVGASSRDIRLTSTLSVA
Description: (§1) KG is defined as the concentration of glucose which reduces the enzymatic activity of the beta-glucosidase by 50%. […] The kcat is the catalytic rate constant for the hydrolysis of cellobiose. Example 8 details an assay for measuring the KG and KG2 of parental and modified TrCel3A beta-glucosidases. Example 9 details an assay for measuring the kcat of parental and modified TrCel3A beta-glucosidases.
(§2) KG of the parental and modified TrCel3A beta-glucosidases can be determined by measuring the rate of hydrolysis of a chromogenic substrate, such as p-nitrophenyl-beta-D-glucopyranoside (pNPG), in the presence of various concentrations of glucose as described in Example 8. […] The KG2 constants for parental and modified TrCel3A beta-glucosidases can be determined by measuring the rate of hydrolysis of cellobiose in reactions containing increasing concentrations of cellobiose or, alternatively, by measuring the rate of hydrolysis of a chromogenic substrate, such as pNPG, in the presence of various concentrations of a cellobiose as described in Example 8. […] The kcat values for parental and modified TrCel3A beta-glucosidases can be determined by measuring the rate of cellobiose hydrolysis at varying concentrations of a cellobiose substrate, for example, as described in Example 9. […]

[2] = system: Trichoderma reesei beta-glucosidase TrCel3A variant TrCel3A-I543N, SEQ ID NO: 10 (full: SEQ ID NO: 125); experiment: Initial rate assay of cellobiose hydrolysis, TrCel3A-I543N (Example 9); type: biochemical; conditions: relative to parental TrCel3A
Description: as §1, §2

[3] = target: T1, Trichoderma reesei beta-glucosidase TrCel3A (Cel3A, BGL1), wild type (parental), SEQ ID NO: 116 / SEQ ID NO: 1; experiment: pNPG competitive substrate/inhibitor real-time kinetic assay, parental TrCel3A (Example 8)
[4] = target: Beta-glucosidases from most fungi; conditions: literature, read-out: KG values for glucose (glucose inhibition); cited from earlier work
[5] = target: Several microbial beta-glucosidases with higher tolerance to glucose inhibition; conditions: literature, read-out: KG (tolerance to glucose inhibition); cited from earlier work
[6] = substrate: OC[C@H]1O[C@@H](O[C@H]2[C@H](O)[C@@H](O)C(O)O[C@@H]2CO)[C@H](O)[C@@H](O)[C@@H]1O; experiment: purified protein, by the assay type; conditions: other: 0.4 mM pNPG, 3 mM cellobiose, 50 mM citrate pH 5.0, 50° C.

Which “kcat (catalytic rate constant for cellobiose)” value ([1]; 0.3 to 40 mM cellobiose, 50° C., 15 min) does the source give for `OC[C@H]1O[C@@H](O[C@H]2[C@H](O)[C@@H](O)C(O)O[C@@H]2CO)[C@H](O)[C@@H](O)[C@@H]1O` (stereo partly drawn) [cellobiose, gluco-beta-(1,4)-glucoside] here?
Its value is 8.92 µmol/min/mg and 8.92 ± 0.29 µmol/min/mg.

What about the Relative kcat ([1]; cellobiose, relative to parental TrCel3A) of the same molecule?
The Relative kcat was 1.

What about the Relative kcat [2] of the same molecule?
The Relative kcat was 0.73.

And the “Relative KG2” value ([3]; relative to parental TrCel3A)?
Its value is 1.00.

Which results are given for `OC[C@H]1OC(O)[C@H](O)[C@@H](O)[C@@H]1O` (some centres unmarked) [glucose]?
Ki [4]: 600 to 8000 µM; Ki [5]: > 8000 µM; Ki [3]: 580 µM

B1: Trichoderma reesei beta-glucosidase TrCel3A (Cel3A, BGL1), wild type (parental), SEQ ID NO: 116 / SEQ ID NO: 1 (Trichoderma reesei) (protein)
chain: VVPPAGTPWGTAYDKAKAALAKLNLQDKVGIVSGVGWNGGPCVGNTSPASKISYPSLCLQDGPLGVRYSTGSTAFTPGVQAASTWDVNLIRERGQFIGEEVKASGIHVILGPVAGPLGKTPQGGRNWEGFGVDPYLTGIAMGQTINGIQSVGVQATAKHYILNEQELNRETISSNPDDRTLHELYTWPFADAVQANVASVMCSYNKVNTTWACEDQYTLQTVLKDQLGFPGYVMTDWNAQHTTVQSANSGLDMSMPGTDFNGNNRLWGPALTNAVNSNQVPTSRVDDMVTRILAAWYLTGQDQAGYPSFNISRNVQGNHKTNVRAIARDGIVLLKNDANILPLKKPASIAVVGSAAIIGNHARNSPSCNDKGCDDGALGMGWGSGAVNYPYFVAPYDAINTRASSQGTQVTLSNTDNTSSGASAARGKDVAIVFITADSGEGYITVEGNAGDRNNLDPWHNGNALVQAVAGANSNVIVVVHSVGAIILEQILALPQVKAVVWAGLPSQESGNALVDVLWGDVSPSGKLVYTIAKSPNDYNTRIVSGGSDSFSEGLFIDYKHFDDANITPRYEFGYGLSYTKFNYSRLSVLSTAKSGPATGAVVPGGPSDLFQNVATVTVDIANSGQVTGAEVAQLYITYPSSAPRTPPKQLRGFAKLNLTPGQSGTATFNIRRRDLSYWDTASQKWVVPSGSFGISVGASSRDIRLTSTLSVA
With B1 as the molecule, how does the Km [6] read?
Its Km is 1180 ± 120 µM.
